Where two headings read alike, the source gives them in different places.
Biological target: MLK3 (Homo sapiens (Human), UniProt Q16584)
Assay: Radiometric Filter Plate MLK3 Assay
Format: biochemical
Details: read-out: MK3 IC50
Procedure: Radiometric Filter Plate MLK3 Assay
After a twenty minute incubation, the reactions were washed through filter plates and read on a scintillation counter. Results are shown in Table 4 below, in which +++ indicates ≦0.1 μM, ++ indicates >0.1 μM and ≦1 μM, and + indicates >1 μM.

[1] = 200 ng (130 nM) MLK3, 1 μM inactive MKK7b, 2 μM cold ATP (Km), 33P ATP, twenty minute incubation

MLK3, sequence (Q16584 whole entry): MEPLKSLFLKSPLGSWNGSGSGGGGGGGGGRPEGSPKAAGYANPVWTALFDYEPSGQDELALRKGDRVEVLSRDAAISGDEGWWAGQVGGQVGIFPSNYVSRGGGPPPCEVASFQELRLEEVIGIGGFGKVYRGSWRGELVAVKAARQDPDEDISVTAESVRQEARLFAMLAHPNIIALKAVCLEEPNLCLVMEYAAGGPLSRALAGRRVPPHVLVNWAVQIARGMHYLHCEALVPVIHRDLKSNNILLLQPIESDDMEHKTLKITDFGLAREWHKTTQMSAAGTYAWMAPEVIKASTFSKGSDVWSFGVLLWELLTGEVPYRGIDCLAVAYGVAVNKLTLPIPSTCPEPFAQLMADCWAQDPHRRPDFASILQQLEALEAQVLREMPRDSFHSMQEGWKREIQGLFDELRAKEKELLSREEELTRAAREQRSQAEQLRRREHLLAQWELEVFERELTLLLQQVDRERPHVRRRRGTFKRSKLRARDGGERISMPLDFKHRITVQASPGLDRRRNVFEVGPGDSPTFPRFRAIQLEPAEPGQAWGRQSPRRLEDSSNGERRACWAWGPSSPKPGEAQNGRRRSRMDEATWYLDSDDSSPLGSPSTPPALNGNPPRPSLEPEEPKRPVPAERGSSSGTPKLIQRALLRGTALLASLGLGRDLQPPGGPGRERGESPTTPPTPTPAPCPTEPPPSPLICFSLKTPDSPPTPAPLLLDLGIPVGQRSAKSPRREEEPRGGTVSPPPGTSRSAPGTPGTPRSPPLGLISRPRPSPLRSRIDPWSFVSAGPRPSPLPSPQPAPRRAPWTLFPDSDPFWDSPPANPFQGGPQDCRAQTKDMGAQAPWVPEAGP

| SMILES | IC50 | IC50 [1] |
| --- | --- | --- |
| COc1cc(-c2cnc3c(c2)C(C)(C)C(=O)N3)cc(OC)c1OC [Example 120, 3,3-dimethyl-5-(3,4,5-trimethoxyphenyl)-1H-pyrrolo[2,3-b]pyridin-2(3H)-one] | 100 to 1000 nM |  |
| COc1cc(-c2cnc3c(c2)C(Cc2ccc(C(N)=O)cc2)C(=O)N3)cc(OC)c1OC (stereo not drawn) [Example 138, 4-[2-oxo-5-(3,4,5-trimethoxy-phenyl)-2,3-dihydro-1H-pyrrolo[2,3-b]pyridin-3-ylmethyl]-benzamide] |  | > 1000 nM |
| O=C1CN(Cc2ccc(-c3cnc4[nH]cc(-c5ccc6[nH]ccc6c5)c4c3)cc2)CCN1 [Example 142, 4-{4-[3-(1H-indol-5-yl)-1H-pyrrolo[2,3-b]pyridin-5-yl]-benzyl}-piperazin-2-one] |  | < 100 nM |
| O=c1[nH]c2ncc(-c3ccncc3)nc2n1-c1ccc2cn[nH]c2c1 [Example 93, 1-(1H-indazol-6-yl)-6-(pyridin-4-yl)-1H-imidazo[4,5-b]pyrazin-2(3H)-one] | 100 to 1000 nM |  |
| COc1ccc(-c2cnc3[nH]cc(-c4ccc5[nH]ccc5c4)c3c2)cc1OC [Example 2, 5-(3,4-dimethoxyphenyl)-3-(1H-indol-5-yl)-1H-pyrrolo[2,3-b]pyridine] | 100 to 1000 nM |  |
| Cc1cc2cc(-n3c(=O)[nH]c4ncc(-c5ccc(O)cc5)nc43)ccc2[nH]1 [Example 84, 6-(4-hydroxyphenyl)-1-(2-methyl-1H-indol-5-yl)-1H-imidazo[4,5-b]pyrazin-2(3H)-one] | 100 to 1000 nM |  |
| COc1cc(-c2cnc3c(c2)C(=Cc2ccccc2)C(=O)N3)cc(OC)c1OC [Example 130, 3-benzylidene-5-(3,4,5-trimethoxy-phenyl)-1,3-dihydro-pyrrolo[2,3-b]pyridin-2-one] |  | > 1000 nM |
| CC(=O)N1CCN(C(=O)c2cccc(-c3cnc4[nH]cc(-c5ccc(C(N)=O)cc5)c4c3)c2)CC1 [Example 153, 4-{5-[3-(4-acetyl-piperazine-1-carbonyl)-phenyl]-1H-pyrrolo[2,3-b]pyridin-3-yl}-benzamide] | 100 to 1000 nM |  |
| COc1ccc(-c2cnc3[nH]cc(-c4ccc5[nH]ccc5c4)c3n2)cc1OC [Example 37, 2-(3,4-dimethoxyphenyl)-7-(1H-indol-5-yl)-5H-pyrrolo[3,2-b]pyrazine] |  | < 100 nM |
| COc1cc(-c2cnc3[nH]cc(-c4ccc(C(N)=O)cc4)c3c2)ccc1N [Example 27, 4-(5-(4-amino-3-methoxyphenyl)-1H-pyrrolo[2,3-b]pyridin-3-yl)benzamide] | 100 to 1000 nM |  |
| COc1cc(-c2cnc3[nH]cc(-c4ccc(CNC(C)=O)cc4)c3c2)cc(OC)c1OC [Example 159, N-{4-[5-(3,4,5-Trimethoxy-phenyl)-1H-pyrrolo[2,3-b]pyridin-3-yl]-benzyl}-acetamide] |  | < 100 nM |
| COc1cc(-c2cnc3[nH]cc(-c4ccc5[nH]ccc5c4)c3n2)ccc1OCCN1CCOCC1 [Example 39, 4-(2-(4-(7-(1H-indol-5-yl)-5H-pyrrolo[3,2-b]pyrazin-2-yl)-2-methoxyphenoxy)ethyl)morpholine] |  | < 100 nM |
| O=c1[nH]c2ncc(-c3ccc(N4CCOCC4)cc3)nc2n1CC1CC1 [Example 86, 1-(cyclopropylmethyl)-6-(4-morpholinophenyl)-1H-imidazo[4,5-b]pyrazin-2(3H)-one] |  | > 1000 nM |
| COc1cc(-c2cnc3[nH]cc(-c4ccc5[nH]ccc5c4)c3n2)cc(OC)c1OC [Example 36, 7-(1H-indol-5-yl)-2-(3,4,5-trimethoxyphenyl)-5H-pyrrolo[3,2-b]pyrazine] | < 100 nM |  |
| COc1cc(-c2cnc3[nH]c(=O)n(-c4ccccc4)c3n2)cc(OC)c1OC [Example 105, 1-phenyl-6-(3,4,5-trimethoxyphenyl)-1H-imidazo[4,5-b]pyrazin-2(3H)-one] | 100 to 1000 nM |  |
| CN1CCN(c2cc(-c3cnc4[nH]c(=O)n(-c5ccc6[nH]ccc6c5)c4n3)ccn2)CC1 [Example 66, 1-(1H-indol-5-yl)-6-(2-(4-methylpiperazin-1-yl)pyridin-4-yl)-1H-imidazo[4,5-b]pyrazin-2(3H)-one] |  | > 1000 nM |
| CC(=O)N1CCN(Cc2ccc(-c3cnc4[nH]cc(-c5ccc(C(N)=O)cc5)c4c3)cc2)CC1 [Example 157, 4-{5-[4-(4-acetyl-piperazin-1-ylmethyl)-phenyl]-1H-pyrrolo[2,3-b]pyridin-3-yl}-benzamide] |  | < 100 nM |
| COc1cc(-c2cnc3[nH]c(=O)n(-c4ccc5cc[nH]c5c4)c3n2)cc(OC)c1OC [Example 113, 1-(1H-indol-6-yl)-6-(3,4,5-trimethoxyphenyl)-1H-imidazo[4,5-b]pyrazin-2(3H)-one] |  | < 100 nM |
| O=c1[nH]c2ncc(-c3ccncc3)nc2n1C1CCCC1 [Example 77, 1-cyclopentyl-6-(pyridin-4-yl)-1H-imidazo[4,5-b]pyrazin-2(3H)-one] |  | > 1000 nM |
| COc1cc(-c2cnc3[nH]c(=O)n(-c4ccc5[nH]ccc5c4)c3n2)ccc1OCCN1CCNCC1 [Example 67, 1-(1H-indol-5-yl)-6-(3-methoxy-4-(2-(piperazin-1-yl)ethoxy)phenyl)-1H-imidazo[4,5-b]pyrazin-2(3H)-one] | 100 to 1000 nM |  |

| SMILES | IC50 | IC50 [1] |
| --- | --- | --- |
| COc1cc(-c2cnc3[nH]cc(-c4ccc5[nH]ccc5c4)c3c2)ccc1OCCN(C)C [Example 35, 2-(4-(3-(1H-indol-5-yl)-1H-pyrrolo[2,3-b]pyridin-5-yl)-2-methoxyphenoxy)-N,N-dimethylethanamine] |  | > 1000 nM |
| CC(=O)N1CCN(C(=O)c2ccc(-c3cnc4[nH]cc(-c5ccc(C(N)=O)cc5)c4c3)cc2)CC1 [Example 150, 4-{5-[4-(4-acetyl-piperazine-1-carbonyl)-phenyl]-1H-pyrrolo[2,3-b]pyridin-3-yl}-benzamide] | 100 to 1000 nM |  |
| COc1cc(-c2cnc3c(c2)C(=Cc2cccnc2)C(=O)N3)cc(OC)c1OC (racemic) [Example 128, 3-pyridin-3-ylmethylene-5-(3,4,5-trimethoxy-phenyl)-1,3-dihydro-pyrrolo[2,3-b]pyridin-2-one] | 100 to 1000 nM |  |
| CC(=O)N1CCN(Cc2ccc(-c3cnc4[nH]cc(-c5ccc6[nH]ccc6c5)c4c3)cc2)CC1 [Example 140, 1-(4-{4-[3-(1H-indol-5-yl)-1H-pyrrolo[2,3-b]pyridin-5-yl]-benzyl}-piperazin-1-yl)-ethanone] | > 1000 nM |  |
| Cc1cc2cc(-n3c(=O)[nH]c4ncc(-c5ccncc5)nc43)ccc2[nH]1 [Example 85, 1-(2-methyl-1H-indol-5-yl)-6-(pyridin-4-yl)-1H-imidazo[4,5-b]pyrazin-2(3H)-one] |  | > 1000 nM |
| CN(C)c1ccc(-c2cnc3[nH]cc(-c4ccc5[nH]ccc5c4)c3c2)cn1 [Example 13, 5-(3-(1H-indol-5-yl)-1H-pyrrolo[2,3-b]pyridin-5-yl)-N,N-dimethylpyridin-2-amine] | 100 to 1000 nM |  |
| COc1cc(-c2cnc3c(c2)/C(=C\c2ccncc2)C(=O)N3)cc(OC)c1OC [Example 129, (E)- and (Z)-3-pyridin-4-ylmethylene-5-(3,4,5-trimethoxy-phenyl)-1,3-dihydro-pyrrolo[2,3-b]pyridin-2-one] |  | > 1000 nM |
| CC(C)(C)OC(=O)N1CCN(C(=O)c2ccc(-c3cnc4[nH]cc(-c5ccc(C(N)=O)cc5)c4c3)cc2)CC1 [Example 148, 4-{4-[3-(4-carbamoyl-phenyl)-1H-pyrrolo[2,3-b]pyridin-5-yl]-benzoyl}-piperazine-1-carboxylic acid tert-butyl ester] |  | < 100 nM |
| COc1ccc(-n2c(=O)[nH]c3ncc(-c4cc(OC)c(OC)c(OC)c4)nc32)cc1 [Example 68, 1-(4-methoxyphenyl)-6-(3,4,5-trimethoxyphenyl)-1H-imidazo[4,5-b]pyrazin-2(3H)-one] | 100 to 1000 nM |  |
| COc1cc(-c2cnc3[nH]c(=O)n(C4CCc5ccccc54)c3n2)cc(OC)c1OC (stereo not drawn) [Example 101, 1-(2,3-dihydro-1H-inden-1-yl)-6-(3,4,5-trimethoxyphenyl)-1H-imidazo[4,5-b]pyrazin-2(3H)-one] |  | > 1000 nM |
| CNc1ccc(-c2cnc3[nH]cc(-c4ccc5[nH]ccc5c4)c3c2)cn1 [Example 30, 5-(3-(1H-indol-5-yl)-1H-pyrrolo[2,3-b]pyridin-5-yl)-N-methylpyridin-2-amine] | < 100 nM |  |
| O=c1[nH]c2ncc(-c3cc(F)cc(F)c3)nc2n1-c1ccc2[nH]ccc2c1 [Example 61, 6-(3,5-difluorophenyl)-1-(1H-indol-5-yl)-1H-imidazo[4,5-b]pyrazin-2(3H)-one] |  | > 1000 nM |
| COc1cc(-c2cnc3[nH]c(=O)n(-c4ccc5[nH]ccc5c4)c3n2)cc(OC)c1O [Example 62, 6-(4-hydroxy-3,5-dimethoxyphenyl)-1-(1H-indol-5-yl)-1H-imidazo[4,5-b]pyrazin-2(3H)-one] |  | < 100 nM |
| COc1cc(-c2cnc3[nH]cc(-c4ccc5[nH]ccc5c4)c3n2)ccc1N [Example 38, 4-(7-(1H-indol-5-yl)-5H-pyrrolo[3,2-b]pyrazin-2-yl)-2-methoxyaniline] |  | < 100 nM |
| COc1ccc(-c2cnc3[nH]c(=O)n(C4CCCC4)c3n2)cc1OC [Example 75, 1-cyclopentyl-6-(3,4-dimethoxyphenyl)-1H-imidazo[4,5-b]pyrazin-2(3H)-one] |  | > 1000 nM |
| COc1cc(-c2cnc3[nH]c(=O)n(C4CCCC4)c3n2)cc(OC)c1OC [Example 74, 1-cyclopentyl-6-(3,4,5-trimethoxyphenyl)-1H-imidazo[4,5-b]pyrazin-2(3H)-one] |  | < 100 nM |
| COc1ccc(-c2cnc3[nH]cc(-c4ccc5[nH]ccc5c4)c3c2)cn1 [Example 6, 3-(1H-indol-5-yl)-5-(6-methoxypyridin-3-yl)-1H-pyrrolo[2,3-b]pyridine] | 100 to 1000 nM |  |
| COc1ccc(-c2cnc3[nH]c(=O)n(-c4ccc5cn[nH]c5c4)c3n2)cc1OC [Example 91, 6-(3,4-dimethoxyphenyl)-1-(1H-indazol-6-yl)-1H-imidazo[4,5-b]pyrazin-2(3H)-one] | 100 to 1000 nM |  |
| CN1CCN(Cc2ccc(-c3cnc4[nH]cc(-c5ccc6[nH]ccc6c5)c4c3)cc2)CC1=O [Example 141, 4-{4-[3-(1H-indol-5-yl)-1H-pyrrolo[2,3-b]pyridin-5-yl]-benzyl}-1-methyl-piperazin-2-one] |  | < 100 nM |

From patent publication US9814704B2, “Substituted pyrrolo[2,3-b]pyridines as MLK inhibitors” (The University of Rochester, priority 2008, dated 2017)
